Assay results reported in patent publication US20230210857A1, “RESPIRATORY STIMULANT PARENTERAL FORMULATIONS” (Enalare Therapeutics Inc., priority 2021, published 2023).

Legend:
[1] = Three-phase pharmacokinetics (PK) study in minipigs, single IV and IM doses; conditions: male, Gottingen, minipig, in vivo; for AUC(0-inf): AUCINF; for AUC(0-t): AUClast; for half-life: T1/2
Protocol: The study consisted of conducting a bioequivalence (BE) study in minipigs. Two formulations of a Compound having Formula (I) (N-(4,6-Bis-n-propylamino-[1,3,5]triazin-2-yl)-O,N-dimethyl-hydroxylamine) were tested in the study as follows:
For IV administration, minipigs (n=3) received a single IV bolus (1-2 minutes) administration of the Compound having Formula (I) (N-(4,6-Bis-n-propylamino-[1,3,5]triazin-2-yl)-O,N-dimethyl-hydroxylamine) via VAP (vascular access port) at the jugular vein. For IM administration, minipigs (n=3) received a single IM administration of Compound having Formula (I) (N-(4,6-Bis-n-propylamino-[1,3,5]triazin-2-yl)-O,N-dimethyl-hydroxylamine) via the lateral neck muscle (behind the ear). The animals were dosed before noon on dosing days. The routes allowed for the determination of pharmacokinetics of Compound having Formula (I) (N-(4,6-Bis-n-propylamino-[1,3,5]triazin-2-yl)-O,N-dimethyl-hydroxylamine) from IV and IM administration.
A PK study was conducted in male Gottingen minipigs (n=3), which were administered in a single IV and subsequent IM doses using the dosing scheme outlined in Table 25. There was a minimum of 3 day washout period between dose events.
The mean dose for IV dose Group 1 was 4.79+/−0.012 mg/kg. The mean dose for IM dose Group 2 was 4.82+/−0.036 mg/kg. The mean dose for IM dose Group 3 was 4.79+/−0.033 mg/kg. All through groups nominal doses were 4.8 mg/kg. These does were based on the nominal concentrations of the Compound having Formula (I) (N-(4,6-Bis-n-propylamino-[1,3,5]triazin-2-yl)-O,N-dimethyl-hydroxylamine) in the dose formulations (purity, water, and salt content corrected).
For IV administration, minipigs (n=3) received a single IV bolus (1-2 minutes) administration of Compound having Formula (I) (N-(4,6-Bis-n-propylamino-[1,3,5]triazin-2-yl)-O,N-dimethyl-hydroxylamine) via a Vascular access port (VAP) in the jugular vein. For IM administration, minipigs (n=3) received a single IM administration of each IM formulation via the lateral neck muscle (behind the ear). For each dose event, blood samples were collected at 8 time points: 0.083, 0.167, 0.25, 0.5, 1, 2, 4 and 24 hours post dose. General observations were conducted twice-daily for any treatment-related effects/toxicity and/or tolerability. Table 26 includes the Plasma Concentration Descriptive Statistics of Compound having Formula (I) (N-(4,6-Bis-n-propylamino-[1,3,5]triazin-2-yl)-O,N-dimethyl-hydroxylamine). Table 27 illustrates the plasma concentration pharmacokinetic parameters of Compound having Formula (I) (N-(4,6-Bis-n-propylamino-[1,3,5]triazin-2-yl)-O,N-dimethyl-hydroxylamine).
The plasma concentration descriptive statistics of the compound having Formula (I) (N-(4,6-Bis-n-propyl amino-[1,3,5]triazin-2-yl)-O,N-dimethyl-hydroxyl amine) are presented in Table 28.
The T1/2 values were 3.0 hours for IV Group 1 and 3.2 hours and 2.7 hours for IM Groups 2 and 3, respectively.
For each dose level, Cmax was higher for IV dosing than for IM dosing whereas AUClast was higher for IM dosing than for IV dosing.
The IV and IM bioavailability of a Compound having Formula (I) (N-(4,6-Bis-n-propylamino-[1,3,5]triazin-2-yl)-O,N-dimethyl-hydroxylamine) is presented in Table 30.
The IV formulation single injection yielded higher Cmax and shorter time to Cmax(Tmax). […] From the present pharmacokinetic study, it is believed that IM Formulation 1 is a simple formulation with high solubility and shorter Tmax, while IM Formulation 2 has higher absorption in both rats and minipig.

[2] = Stability as a function of pH, narrow range pH 2-3.6 (1 mg/mL in ~10 mM citric acid/glycine buffers); type: physicochemical
Protocol: Accordingly, the stability of the compound was evaluated in the pH range 2-3.6.
Methodology: Buffer solutions containing ˜10 mM each of citric acid and glycine in the pH range 2-3.6 were prepared by titrating 250 mL of a single stock containing both buffer agents with 1N NaOH/1N HCl and removing 50 mL aliquots at predetermined pH values. Solutions at 1 mg/mL were prepared in the buffers by dissolving ˜25 mg of compound in ˜23 mL of a given buffer, adjusting the pH to the target and making up the volume to 25.0 mL in a volumetric flask.
Each of the buffered solutions was filtered through a 0.2 μm polyether sulfone syringe filter into a volumetric flask previously rinsed with 70% ethanol and dried in a laminar flow hood. Following filtration, each buffered solution was split into 9 aliquots in 5 mL serum vials previously rinsed with 70% ethanol and dried in a laminar flow hood. Filtration and preparation of aliquots were performed in a laminar flow hood. Of the nine aliquots, three aliquots were stored at each 40° C. and 60° C., two aliquots were stored at 25° C. and one aliquot was submitted for T0 testing. Samples were evaluated for pH, assay and related substances at T0 and, following 1 week, 2 weeks and 4 weeks of storage at 40° C. and 60° C. Samples stored at 25° C. served as controls to be analyzed if necessary.
This means that any increase in the pH of the formulation leads to an improvement in stability within the pH range in which an aqueous formulation is feasible.

[3] = iv, 4.8 mg/kg, Mean plasma concentration

**Q.** For `CCCNc1nc(NCCC)nc(N(C)OC)n1` [active agent, N-(4,6-Bis-n-propylamino-[1,3,5]triazin-2-yl)-O,N-dimethyl-hydroxylamine], which bioavailability [1] is on record?
**A.** 117.2%

**Q.** What about the bioavailability ([1]; Bioavailability) of the same molecule?
**A.** 113%

**Q.** And the AUClast ([1]; im, 4.8 mg/kg)?
**A.** 2711 ng·h/mL

**Q.** And the T1/2 ([1]; im, 4.8 mg/kg)?
**A.** 2.7 h

**Q.** And the AUC(0-inf) ([1]; im, 4.8 mg/kg)?
**A.** 2720 ng·h/mL

**Q.** What about the AUC(0-t) ([1]; im, 4.8 mg/kg) of the same molecule?
**A.** 2620 ng·h/mL

**Q.** And the Cmax ([1]; im, 4.8 mg/kg)?
**A.** 466 ng/mL

**Q.** And the half-life ([1]; im, 4.8 mg/kg)?
**A.** 192 min

**Q.** What about the Tmax ([1]; im, 4.8 mg/kg) of the same molecule?
**A.** 30 min

**Q.** And the AUC(0-inf) ([1]; iv, 4.8 mg/kg)?
**A.** 2320 ng·h/mL

**Q.** What about the AUC(0-t) ([1]; iv, 4.8 mg/kg) of the same molecule?
**A.** 2310 ng·h/mL

**Q.** And the bioavailability ([1]; iv, 4.8 mg/kg, Bioavailability)?
**A.** 100%

**Q.** And the Cmax ([1]; iv, 4.8 mg/kg)?
**A.** 2820 ng/mL

**Q.** And the concentration at 0.083 hr [1, 3]?
**A.** 2820 ng/mL

**Q.** And the concentration at 0.167 hr [1, 3]?
**A.** 2010 ng/mL

**Q.** And the concentration at 0.25 hr [1, 3]?
**A.** 1500 ng/mL

**Q.** And the concentration at 0.5 hr [1, 3]?
**A.** 1020 ng/mL

**Q.** And the concentration at 1 hr [1, 3]?
**A.** 519 ng/mL

**Q.** What about the concentration at 2 hr [1, 3] of the same molecule?
**A.** 186 ng/mL

**Q.** And the concentration at 4 hr [1, 3]?
**A.** 40 ng/mL

**Q.** What about the concentration at 24 hr [1, 3] of the same molecule?
**A.** 0.8 ng/mL

**Q.** And the half-life ([1]; iv, 4.8 mg/kg)?
**A.** 180 min

**Q.** What about the Tmax ([1]; iv, 4.8 mg/kg) of the same molecule?
**A.** 4.98 min

**Q.** What about the Assay ([2]; target pH 2.0, 60° C. 4 wk) of the same molecule?
**A.** 0.786

**Q.** What about the Impurities ([2]; target pH 2.7, 60° C. 4 wk) of the same molecule?
**A.** 3.9

**Q.** And the pH ([2]; target pH 3.0, 60° C. 4 wk)?
**A.** 3.00

**Q.** And the Assay ([2]; target pH 3.6, 60° C. 2 wk)?
**A.** 0.958
